From patent US20230024302A1, “2,3,5-TRISUBSTITUTED PYRAZOLO[1,5-A]PYRIMIDINE COMPOUNDS” (Arcus Biosciences, Inc., priority 2019, published 2023)

Legend:
PI3Kγ = molecular target: T1, PI3Kγ (Homo sapiens, UniProt P48736); assay: PI3Kγ cellular assay in THP-1 cells (AKT pS473 AlphaLISA); assay type: cell-based; conditions: Table 1, rhMCP-1 stimulated AKT pS473, read-out: cellular potency (PI3Kγ IC50)
T1 construct: host or cells: THP-1
In short: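 Endogenous AKT S473 phosphorylation, detected by AlphaLISA in lysates, serves as the PI3Kγ activity read-out in stimulated, serum-starved THP-1 cells (1.8×10^5/well).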

PI3Kγ (p120γ) = molecular target: T2, PI3Kγ (p120γ) (Homo sapiens, UniProt P48736); assay: Inhibition of PI3K kinase activity (ADP Glo), PI3Kγ; conditions: Table 1, p120γ, read-out: biochemical potency (PI3Kγ IC50)
T2 construct: purchased Promega V1761
T2 sequence (P48736 whole entry): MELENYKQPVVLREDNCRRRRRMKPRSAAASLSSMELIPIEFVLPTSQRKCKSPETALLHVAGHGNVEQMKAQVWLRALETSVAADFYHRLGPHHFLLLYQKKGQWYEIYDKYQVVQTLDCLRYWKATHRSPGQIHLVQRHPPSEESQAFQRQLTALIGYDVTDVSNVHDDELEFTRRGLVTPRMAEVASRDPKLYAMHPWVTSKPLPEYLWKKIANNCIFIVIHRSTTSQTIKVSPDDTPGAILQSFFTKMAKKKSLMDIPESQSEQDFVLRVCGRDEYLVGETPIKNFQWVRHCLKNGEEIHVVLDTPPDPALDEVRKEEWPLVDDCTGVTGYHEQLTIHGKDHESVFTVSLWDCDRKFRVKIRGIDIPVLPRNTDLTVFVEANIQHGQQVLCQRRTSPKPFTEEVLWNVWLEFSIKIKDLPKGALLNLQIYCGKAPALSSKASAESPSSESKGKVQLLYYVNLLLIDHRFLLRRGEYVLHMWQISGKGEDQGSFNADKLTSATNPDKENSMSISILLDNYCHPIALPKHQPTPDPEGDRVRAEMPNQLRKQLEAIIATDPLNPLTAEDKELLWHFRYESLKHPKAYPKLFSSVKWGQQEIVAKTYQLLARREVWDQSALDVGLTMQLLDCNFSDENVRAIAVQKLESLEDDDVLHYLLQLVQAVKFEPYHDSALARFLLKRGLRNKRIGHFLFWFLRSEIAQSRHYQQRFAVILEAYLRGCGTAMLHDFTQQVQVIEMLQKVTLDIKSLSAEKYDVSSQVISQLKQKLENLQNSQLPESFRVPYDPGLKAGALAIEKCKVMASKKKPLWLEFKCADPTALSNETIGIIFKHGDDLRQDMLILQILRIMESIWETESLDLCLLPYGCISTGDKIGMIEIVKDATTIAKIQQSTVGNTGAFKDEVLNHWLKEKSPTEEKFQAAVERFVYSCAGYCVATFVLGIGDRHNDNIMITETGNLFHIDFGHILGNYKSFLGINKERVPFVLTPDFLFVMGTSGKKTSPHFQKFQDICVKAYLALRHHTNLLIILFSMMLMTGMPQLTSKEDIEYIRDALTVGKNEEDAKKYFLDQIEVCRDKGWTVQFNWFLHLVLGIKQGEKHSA
In short: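 IC50 values come from a 4-parameter nonlinear fit of ADP-Glo luminescence, which measures ADP produced as PIP2 is phosphorylated to PIP3. The p120γ enzyme (2× stock 8 nM) sat with compound 1 h at rt before substrate (2× stocks: 50 μM ATP, 0.1 mg/ml PIP2) was added. Phosphorylation then proceeded 60 min at rt.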

T1 sequence (P48736 whole entry): as above

| Structure (SMILES) | IC50 (PI3Kγ) [nM] | IC50 (PI3Kγ (p120γ)) [nM] |
| --- | --- | --- |
| CNS(=O)(=O)c1cc(-c2ccn3nc(N)c(C(=O)Nc4cnn(C)c4)c3n2)cc2c1C(=O)N([C@@H](C)C1CC1)C2 [Example 140, 2-Amino-5-{2-[(1S)-1-cyclopropylethyl]-7-(methylsulfamoyl)-1-oxo-2,3-dihydro-1H-isoindol-5-yl}-N-(1-methyl-1H-pyrazol-4-yl)pyrazolo[1,5-a]pyrimidine-3-carboxamide] | < 100 | < 100 |
| CNS(=O)(=O)c1cc(-c2ccn3nc(N)c(C(=O)N[C@H]4C[C@H](O)C4)c3n2)cc2c1C(=O)N([C@@H](C)C1CC1)C2 [Example 141, 2-Amino-5-{2-[(1S)-1-cyclopropylethyl]-7-(methylsulfamoyl)-1-oxo-2,3-dihydro-1H-isoindol-5-yl}-N-[trans-3-hydroxycyclobutyl]pyrazolo[1,5-a]pyrimidine-3-carboxamide] | < 100 | < 100 |
| CNS(=O)(=O)c1cc(-c2ccn3nc(N)c(C(=O)NC4CC4)c3n2)cc2c1C(=O)N([C@@H](C)C1CC1)C2 [Example 142, 2-Amino-N-cyclopropyl-5-{2-[(1S)-1-cyclopropylethyl]-7-(methylsulfamoyl)-1-oxo-2,3-dihydro-1H-isoindol-5-yl}pyrazolo[1,5-a]pyrimidine-3-carboxamide] | < 100 | < 100 |
| CCNS(=O)(=O)c1cc(-c2ccn3nc(N)c(C(=O)NC4CC4)c3n2)cc2c1C(=O)N([C@@H](C)C1CC1)C2 [Example 143, 2-Amino-N-cyclopropyl-5-{2-[(1S)-1-cyclopropylethyl]-7-(ethylsulfamoyl)-1-oxo-2,3-dihydro-1H-isoindol-5-yl}pyrazolo[1,5-a]pyrimidine-3-carboxamide] | < 100 | < 100 |
| C[C@@H](C1CC1)N1Cc2cc(-c3ccn4nc(N)c(C(=O)NC5CC5)c4n3)cc(S(=O)(=O)N(C)C)c2C1=O [Example 144, 2-Amino-N-cyclopropyl-5-{2-[(1S)-1-cyclopropylethyl]-7-(dimethylsulfamoyl)-1-oxo-2,3-dihydro-1H-isoindol-5-yl}pyrazolo[1,5-a]pyrimidine-3-carboxamide] | < 100 | < 100 |
| C[C@@H](C1CC1)N1Cc2cc(-c3ccn4nc(N)c(C(=O)N[C@H]5CNC(=O)C5)c4n3)cc(O[C@@H]3CCOC3)c2C1=O [Example 145, 2-Amino-5-{2-[(1S)-1-cyclopropylethyl]-1-oxo-7-[(3R)-oxolan-3-yloxy]-2,3-dihydro-1H-isoindol-5-yl}-N-[(3R)-5-oxopyrrolidin-3-yl]pyrazolo[1,5-a]pyrimidine-3-carboxamide] | < 100 | < 100 |
| C[C@@H](C1CC1)N1Cc2cc(-c3ccn4nc(N)c(C(=O)NC5CC5)c4n3)cc(O[C@H]3CCOC3)c2C1=O [Example 146, 2-Amino-N-cyclopropyl-5-{2-[(1S)-1-cyclopropylethyl]-1-oxo-7-[(3S)-oxolan-3-yloxy]-2,3-dihydro-1H-isoindol-5-yl}pyrazolo[1,5-a]pyrimidine-3-carboxamide] | < 100 | < 100 |
| C[C@@H](C1CC1)N1Cc2cc(-c3ccn4nc(N)c(C(=O)N[C@@H](CO)C5CC5)c4n3)cc(O[C@@H]3CCOC3)c2C1=O [Example 147, 2-Amino-N-[(1R)-1-cyclopropyl-2-hydroxyethyl]-5-{2-[(1S)-1-cyclopropylethyl]-1-oxo-7-[(3R)-oxolan-3-yloxy]-2,3-dihydro-1H-isoindol-5-yl}pyrazolo[1,5-a]pyrimidine-3-carboxamide] | < 100 | < 100 |
| C[C@@H](C1CC1)N1Cc2cc(-c3ccn4nc(N)c(C(=O)NC5CC5)c4n3)cc(O[C@@H]3CCOC3)c2C1=O [Example 148, 2-Amino-N-cyclopropyl-5-{2-[(1S)-1-cyclopropylethyl]-1-oxo-7-[(3R)-oxolan-3-yloxy]-2,3-dihydro-1H-isoindol-5-yl}pyrazolo[1,5-a]pyrimidine-3-carboxamide] | < 100 | < 100 |
| C[C@@H](C1CC1)N1Cc2cc(-c3ccn4nc(N)c(C(=O)NC5CC5)c4n3)cc(O[C@H]3CC[C@H](O)CC3)c2C1=O [Example 149, 2-Amino-N-cyclopropyl-5-{2-[(1S)-1-cyclopropylethyl]-1-oxo-7-{[(1R,4R)-4-hydroxycyclohexyl]oxy}-2,3-dihydro-1H-isoindol-5-yl}pyrazolo[1,5-a]pyrimidine-3-carboxamide] | < 100 | < 100 |
| C[C@@H](C1CC1)N1Cc2cc(-c3ccn4nc(N)c(C(=O)NC5CC5)c4n3)cc(N3CC[C@@H](O)C3)c2C1=O [Example 150, 2-Amino-N-cyclopropyl-5-{2-[(1S)-1-cyclopropylethyl]-7-[(3R)-3-hydroxypyrrolidin-1-yl]-1-oxo-2,3-dihydro-1H-isoindol-5-yl}pyrazolo[1,5-a]pyrimidine-3-carboxamide] | < 100 | < 100 |
| C[C@@H](C1CC1)N1Cc2cc(-c3ccn4nc(N)c(C(=O)N[C@H]5CC[C@@](C)(O)CC5)c4n3)cc(N3CC[C@@H](O)C3)c2C1=O [Example 151, 2-Amino-5-{2-[(1S)-1-cyclopropylethyl]-7-[(3R)-3-hydroxypyrrolidin-1-yl]-1-oxo-2,3-dihydro-1H-isoindol-5-yl}-N-[cis-4-hydroxy-4-methylcyclohexyl]pyrazolo[1,5-a]pyrimidine-3-carboxamide] | < 100 | < 100 |
| C[C@@H](C1CC1)N1Cc2cc(-c3ccn4nc(N)c(C(=O)NC5CC5)c4n3)cc(N3CC[C@H](O)C3)c2C1=O [Example 152, 2-Amino-N-cyclopropyl-5-{2-[(1S)-1-cyclopropylethyl]-7-[(3S)-3-hydroxypyrrolidin-1-yl]-1-oxo-2,3-dihydro-1H-isoindol-5-yl}pyrazolo[1,5-a]pyrimidine-3-carboxamide] | < 100 | < 100 |
| C[C@@H](C1CC1)N1Cc2cc(-c3ccn4nc(N)c(C(=O)N[C@H]5CC[C@](O)(C(F)(F)F)CC5)c4n3)cc(N3CC[C@@H](O)C3)c2C1=O [Example 153, 2-Amino-5-{2-[(1S)-1-cyclopropylethyl]-7-[(3R)-3-hydroxypyrrolidin-1-yl]-1-oxo-2,3-dihydro-1H-isoindol-5-yl}-N-[cis-4-hydroxy-4-(trifluoromethyl)cyclohexyl]pyrazolo[1,5-a]pyrimidine-3-carboxamide] | < 100 | < 100 |
| C[C@@H](C1CC1)N1Cc2cc(-c3ccn4nc(N)c(C(=O)N[C@H]5CC[C@@](C)(O)CC5)c4n3)cc(N3CCOCC3)c2C1=O [Example 154, 2-Amino-5-{2-[(1S)-1-cyclopropylethyl]-7-(morpholin-4-yl)-1-oxo-2,3-dihydro-1H-isoindol-5-yl}-N-[cis-4-hydroxy-4-methylcyclohexyl]pyrazolo[1,5-a]pyrimidine-3-carboxamide] | < 100 | < 100 |
| C[C@@H](C1CC1)N1Cc2cc(-c3ccn4nc(N)c(C(=O)NC5CC5)c4n3)cc(OCC(F)(F)F)c2C1=O [Example 155, 2-Amino-N-cyclopropyl-5-{2-[(1S)-1-cyclopropylethyl]-1-oxo-7-(2,2,2-trifluoroethoxy)-2,3-dihydro-1H-isoindol-5-yl}pyrazolo[1,5-a]pyrimidine-3-carboxamide] | < 100 | < 100 |
